Results reported in US10987359B2, “Oxadiazepinone derivatives and methods of treating hepatitis B infections” (priority 2016, dated 2021).

test system: HBV; assay: HBV replication inhibition assay (BDNA assay) in HepG2.2.15 cells; type: cell-based; settings: HBV replication assay (BDNA assay), HepG2.2.15 cells; read-out: DNA EC50
How it was run: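 Supernatant encapsidated HBV DNA was measured by bDNA after DNase digestion and proteinase K release. Stably HBV-integrated HepG2.2.15 cells had two 3-day compound exposures (0.5% DMSO). Signals were background-subtracted and normalized to DMSO wells, and EC50 was obtained by four-parameter fit.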

SMILES	EC50
C[C@@H]1Cc2nn3c(c2CN1C(=O)Nc1ccc(F)c(C#N)c1F)C(=O)N(C)OC(C(=O)N(C)CC(F)F)C3 (stereo in doubt) [Compound 153_D2, (4R*,9R)—N10-(3-cyano-2,4-difluorophenyl)-N4-(2,2-difluoroethyl)-N4,2,9-trimethyl-1-oxo-1,4,5,8,9,11-hexahydropyrido[4′,3′:3,4]pyrazolo[5,1-d][1,2,5]oxadiazepine-4,10(2H)-dicarboxamide]	1 to 100 nM
Cc1cc(NC(=O)N2Cc3c(nn4c3C(=O)N(C)OC(CN(C)C)C4)C[C@H]2C)ccc1F (stereo in doubt) [Compound 097_D2, (4R*,9R)-4-((dimethylamino)methyl)-N-(4-fluoro-3-methylphenyl)-2,9-dimethyl-1-oxo-1,4,5,8,9,11-hexahydropyrido[4′,3′:3,4]pyrazolo[5,1-d][1,2,5]oxadiazepine-10(2H)-carboxamide]	1 to 100 nM

same assay, conditions: Hepatitis B virus, HepG2.2.15, HBV replication assay (BDNA assay), HepG2.2.15 cells; read-out: DNA EC50

SMILES	EC50
C[C@@H]1Cc2nn3c(c2CN1C(=O)Nc1ccc(F)c(C(F)(F)F)c1)C(=O)N(C)N=C(COCC(F)F)C3 [Compound 238, (R)-4-((2,2-difluoroethoxy)methyl)-N-(4-fluoro-3-(trifluoromethyl)phenyl)-2,9-dimethyl-1-oxo-1,2,5,8,9,11-hexahydro-10H-pyrido[4′,3′:3,4]pyrazolo[5,1-d][1,2,5]triazepine-10-carboxamide]	100 to 500 nM
C[C@@H]1Cc2nn3c(c2CN1C(=O)Nc1ccc(F)c(Br)c1)C(=O)N(C)N=C(CO)C3 [Compound 234, (R)-N-(3-bromo-4-fluorophenyl)-4-(hydroxymethyl)-2,9-dimethyl-1-oxo-1,2,5,8,9,11-hexahydro-10H-pyrido[4′,3′:3,4]pyrazolo[5,1-d][1,2,5]triazepine-10-carboxamide]	1 to 100 nM
C=CCOCC1Cn2nc3c(c2C(=O)N(C)O1)CN(C(=O)Nc1ccc(F)c(Cl)c1)CC3 (stereo not drawn) [Compound 102, 4-(allyloxymethyl)-N-(3-chloro-4-fluoro-phenyl)-2-methyl-1-oxo-5,8,9,11-tetrahydro-4H-pyrido[2,3]pyrazolo[2,4-d][1,2,5]oxadiazepine-10-carboxamide]	1 to 100 nM
C[C@@H]1Cc2nn3c(c2CN1C(=O)Nc1ccc(F)c(Br)c1)C(=O)N(C)OC(COCC(F)F)C3 (stereo in doubt) [Compound 122_D1, (4S*,9R)—N-(3-bromo-4-fluorophenyl)-4-((2,2-difluoroethoxy)methyl)-2,9-dimethyl-1-oxo-1,4,5,8,9,11-hexahydropyrido[4′,3′:3,4]pyrazolo[5,1-d][1,2,5]oxadiazepine-10(2H)-carboxamide]	1 to 100 nM
CC(O)C1=NN(C)C(=O)c2c3c(nn2C1)CCN(C(=O)Nc1ccc(F)c(Cl)c1)C3 (stereo not drawn) [Compound 230, N-(3-chloro-4-fluorophenyl)-4-(1-hydroxyethyl)-2-methyl-1-oxo-1,2,5,8,9,11-hexahydro-10H-pyrido[4′,3′:3,4]pyrazolo[5,1-d][1,2,5]triazepine-10-carboxamide]	1 to 100 nM
Cc1cc(NC(=O)N2Cc3c(nn4c3C(=O)N(C)OC(COCC(F)F)C4)C[C@H]2C)ccc1F (stereo in doubt) [Compound 125_D1, (4S*,9R)-4-((2,2-difluoroethoxy)methyl)-N-(4-fluoro-3-methylphenyl)-2,9-dimethyl-1-oxo-1,4,5,8,9,11-hexahydropyrido[4′,3′:3,4]pyrazolo[5,1-d][1,2,5]oxadiazepine-10(2H)-carboxamide]	1 to 100 nM
CCCN1CCn2nc3c(c2C(=O)N1C)CN(C(=O)Nc1ccc(F)c(C#N)c1)[C@H](C)C3 [Compound 219, (R)—N-(3-cyano-4-fluorophenyl)-2,9-dimethyl-1-oxo-3-propyl-1,2,3,4,5,8,9,11-octahydro-10H-pyrido[4′,3′:3,4]pyrazolo[5,1-d][1,2,5]triazepine-10-carboxamide]	1 to 100 nM
CN1OC(CF)Cn2nc3c(c2C1=O)CN(C(=O)Nc1ccc(F)c(Cl)c1)CC3 (single isomer, unassigned) [Compound 038_E1, (S*)—N-(3-chloro-4-fluorophenyl)-4-(fluoromethyl)-2-methyl-1-oxo-1,4,5,8,9,11-hexahydropyrido[4′,3′:3,4]pyrazolo[5,1-d][1,2,5]oxadiazepine-10(2H)-carboxamide]	1 to 100 nM
CC[C@@H]1Cc2nn3c(c2CN1C(=O)Nc1ccc(F)c(Cl)c1)C(=O)N(C)O[C@@H](CO)C3 (stereo in doubt) [Compound 109_D3, (4R*,9R*)—N-(3-chloro-4-fluorophenyl)-9-ethyl-4-(hydroxymethyl)-2-methyl-1-oxo-1,4,5,8,9,11-hexahydropyrido[4′,3′:3,4]pyrazolo[5,1-d][1,2,5]oxadiazepine-10(2H)-carboxamide]	500 to 1000 nM
CC(=O)NCC1Cn2nc3c(c2C(=O)N(C)O1)CN(C(=O)Nc1ccc(F)c(Cl)c1)CC3 (stereo not drawn) [Compound 162, -(acetamidomethyl)-N-(3-chloro-4-fluoro-phenyl)-2-methyl-1-oxo-5,8,9,11-tetrahydro-4H-pyrido[2,3]pyrazolo[2,4-d][1,2,5]oxadiazepine-10-carboxamide]	1 to 100 nM
CN1OC(COCC(F)F)Cn2nc3c(c2C1=O)CN(C(=O)Nc1ccc(F)c(C(F)(F)F)c1)CC3 (single isomer, unassigned) [Compound 212, (S*)-4-((2,2-difluoroethoxy)methyl)-N-(4-fluoro-3-(trifluoromethyl)phenyl)-2-methyl-1-oxo-1,4,5,8,9,11-hexahydropyrido[4′,3′:3,4]pyrazolo[5,1-d][1,2,5]oxadiazepine-10(2H)-carboxamide]	1 to 100 nM
CN1OC(CO)Cn2nc3c(c2C1=O)CN(C(=O)Nc1cc(F)c(F)c(Br)c1)CC3 (stereo not drawn) [Compound 015, N-(3-bromo-4,5-difluorophenyl)-4-(hydroxymethyl)-2-methyl-1-oxo-1,4,5,8,9,11-hexahydropyrido[4′,3′:3,4]pyrazolo[5,1-d][1,2,5]oxadiazepine-10(2H)-carboxamide]	1 to 100 nM
CC1CON(C)C(=O)c2c3c(nn21)CCN(C(=O)Nc1ccc(F)c(Cl)c1)C3 (stereo not drawn) [Compound 061, N-(3-chloro-4-fluoro-phenyl)-2,5-dimethyl-1-oxo-5,8,9,11-tetrahydro-4H-pyrido[2,3]pyrazolo[2,4-d][1,2,5]oxadiazepine-10-carboxamide]	1 to 100 nM
CN1OC(COC(=O)C(C)(C)C)Cn2nc3c(c2C1=O)CN(C(=O)Nc1ccc(F)c(Cl)c1)CC3 (stereo not drawn) [Compound 055, (10-((3-chloro-4-fluorophenyl)carbamoyl)-2-methyl-1-oxo-1,2,4,5,8,9,10,11-octahydropyrido[4′,3′:3,4]pyrazolo[5,1-d][1,2,5]oxadiazepin-4-yl)methyl pivalate]	1 to 100 nM
CN1OC(CO)Cn2nc3c(c2C1=O)CN(C(=O)Nc1cc(F)c(F)c(F)c1)CC3 (stereo not drawn) [Compound 006, 4-(hydroxymethyl)-2-methyl-1-oxo-N-(3,4,5-trifluorophenyl)-1,4,5,8,9,11-hexahydropyrido[4′,3′:3,4]pyrazolo[5,1-d][1,2,5]oxadiazepine-10(2H)-carboxamide]	1 to 100 nM
CC[C@H]1Cc2nn3c(c2CN1C(=O)Nc1ccc(F)c(Cl)c1)C(=O)N(C)O[C@@H](CO)C3 (stereo in doubt) [Compound 109_D4, (4R*,9S*)—N-(3-chloro-4-fluorophenyl)-9-ethyl-4-(hydroxymethyl)-2-methyl-1-oxo-1,4,5,8,9,11-hexahydropyrido[4′,3′:3,4]pyrazolo[5,1-d][1,2,5]oxadiazepine-10(2H)-carboxamide]	100 to 500 nM
COC(=O)NCC1Cn2nc3c(c2C(=O)N(C)O1)CN(C(=O)Nc1ccc(F)c(C(F)(F)F)c1)[C@H](C)C3 (single isomer, unassigned) [Compound 181_D1, methyl(((4S*,9R)-10-((4-fluoro-3-(trifluoromethyl)phenyl)carbamoyl)-2,9-dimethyl-1-oxo-1,2,4,5,8,9,10,11-octahydropyrido[4′,3′:3,4]pyrazolo[5,1-d][1,2,5]oxadiazepin-4-yl)methyl)carbamate]	1 to 100 nM
CC(=O)NCC1Cn2nc3c(c2C(=O)N(C)O1)CN(C(=O)Nc1ccc(F)c(C#N)c1F)CC3 (single isomer, unassigned) [Compound 167_E1, (S*)-4-(acetamidomethyl)-N-(3-cyano-2,4-difluorophenyl)-2-methyl-1-oxo-1,4,5,8,9,11-hexahydropyrido[4′,3′:3,4]pyrazolo[5,1-d][1,2,5]oxadiazepine-10(2H)-carboxamide]	1 to 100 nM
C[C@@H]1Cc2nn3c(c2CN1C(=O)Nc1ccc(F)c(C#N)c1)C(=O)N(C)O[C@H](COCC(F)(F)F)C3 [Compound 210, (4S,9R)—N-(3-cyano-4-fluorophenyl)-2,9-dimethyl-1-oxo-4-((2,2,2-trifluoroethoxy)methyl)-1,4,5,8,9,11-hexahydropyrido[4′,3′:3,4]pyrazolo[5,1-d][1,2,5]oxadiazepine-10(2H)-carboxamide]	1 to 100 nM
C[C@@H]1Cc2nn3c(c2CN1C(=O)Nc1ccc(F)c(Cl)c1)C(=O)N(C)OC(CF)C3 (single isomer, unassigned) [Compound 088_E1, (4S*,9R)—N-(3-chloro-4-fluorophenyl)-4-(fluoromethyl)-2,9-dimethyl-1-oxo-1,4,5,8,9,11-hexahydropyrido[4′,3′:3,4]pyrazolo[5,1-d][1,2,5]oxadiazepine-10(2H)-carboxamide]	1 to 100 nM
CN1OC(C(=O)NCC(F)(F)F)Cn2nc3c(c2C1=O)CN(C(=O)Nc1ccc(F)c(Cl)c1)CC3 (stereo not drawn) [Compound 135, N10-(3-chloro-4-fluorophenyl)-2-methyl-1-oxo-N4-(2,2,2-trifluoroethyl)-1,4,5,8,9,11-hexahydropyrido[4′,3′:3,4]pyrazolo[5,1-d][1,2,5]oxadiazepine-4,10(2H)-dicarboxamide]	1 to 100 nM

same assay, conditions: Hepatitis B virus, HepG2.2.15, read-out: DNA EC50

SMILES	EC50
CN1OC(CNC(=O)C(F)(F)F)Cn2nc3c(c2C1=O)CN(C(=O)Nc1ccc(F)c(Cl)c1)CC3 (stereo not drawn) [Compound 163, N-(3-chloro-4-fluorophenyl)-2-methyl-1-oxo-4-((2,2,2-trifluoroacetamido)methyl)-1,4,5,8,9,11-hexahydropyrido[4′,3′:3,4]pyrazolo[5,1-d][1,2,5]oxadiazepine-10(2H)-carboxamide]	1 to 100 nM
